Structures can show the parent of a compound that is named as a salt. Active and inactive are the calls of the source. No cut-off for these calls is given here.
Tests used:
[1] = test system: PC-3; assay: Cytotoxicity against human PC-3 cells assessed as cell viability inhibition for 48 hrs by MTT assay; assay type: functional, cell-based; conditions: PC-3, 48 h
[2] = test system: A549; assay: Cytotoxicity against human A549 cells assessed as cell viability inhibition for 48 hrs by MTT assay; assay type: functional, cell-based; conditions: A549, 48 h
[3] = test system: MCF7; assay: Cytotoxicity against human MCF-7 cells assessed as cell viability inhibition for 48 hrs by MTT assay; assay type: functional, cell-based; conditions: MCF7, 48 h
[4] = test system: NCI-H1299; assay: Cytotoxicity against human […] cells assessed as cell viability inhibition for 48 hrs by MTT assay; assay type: functional, cell-based; conditions: NCI-H1299, 48 h
[5] = test system: PC-3; assay: Induction of apoptosis in human PC-3 cells assessed as increase in cleaved PARP level at 2 to 6 uM incubated for 24 hrs by Western blot analysis; assay type: functional, cell-based; conditions: dose 2-6 µM
[6] = test system: PC-3; assay: Induction of apoptosis in human PC-3 cells assessed as mitochondrial membrane potential loss at 2 uM incubated for 24 hrs by JC1 staining based flow cytometric analysis (reference value: 100%); assay type: functional, cell-based
[7] = test system: PC-3; assay: Induction of apoptosis in human PC-3 cells assessed as early apoptotic cells at 6 uM incubated for 24 hrs by annexin V/propidium iodide based flow cytometry (reference value: 2.71%); assay type: functional
[8] = test system: PC-3; assay: Induction of apoptosis in human PC-3 cells assessed as increase in cleaved caspase-9 level at 2 to 6 uM incubated for 24 hrs by Western blot analysis; assay type: functional, cell-based; conditions: dose 2-6 µM
[9] = test system: PC-3; assay: Induction of apoptosis in human PC-3 cells assessed as increase in Bax protein level incubated for 24 hrs by Western blot analysis; assay type: functional, cell-based; conditions: dose 2-6 µM
[10] = test system: PC-3; assay: Induction of apoptosis in human PC-3 cells assessed as necrotic cells at 2 uM incubated for 24 hrs by annexin V/propidium iodide based flow cytometry (reference value: 1.93%); assay type: functional
[11] = test system: PC-3; assay: Induction of apoptosis in human PC-3 cells assessed as late apoptotic cells at 6 uM incubated for 24 hrs by annexin V/propidium iodide based flow cytometry (reference value: 3.89%); assay type: functional
[12] = test system: PC-3; assay: Induction of apoptosis in human PC-3 cells assessed as mitochondrial membrane potential loss at 6 uM incubated for 24 hrs by JC1 staining based flow cytometric analysis (reference value: 100%); assay type: functional, cell-based
[13] = test system: PC-3; assay: Induction of apoptosis in human PC-3 cells assessed as late apoptotic cells at 2 uM incubated for 24 hrs by annexin V/propidium iodide based flow cytometry (reference value: 3.89%); assay type: functional
[14] = test system: PC-3; assay: Induction of apoptosis in human PC-3 cells assessed as granular apoptotic body formation at 2 uM incubated for 24 hrs by DAPI staining analysis; assay type: functional, cell-based
[15] = test system: PC-3; assay: Induction of apoptosis in human PC-3 cells assessed as nuclear shrinkage at 2 uM incubated for 24 hrs by DAPI staining analysis; assay type: functional, cell-based
[16] = test system: PC-3; assay: Induction of apoptosis in human PC-3 cells assessed as mitochondrial membrane potential loss at 4 uM incubated for 24 hrs by JC1 staining based flow cytometric analysis (reference value: 100%); assay type: functional, cell-based
[17] = test system: PC-3; assay: Induction of apoptosis in human PC-3 cells assessed as necrotic cells at 4 uM incubated for 24 hrs by annexin V/propidium iodide based flow cytometry (reference value: 1.93%); assay type: functional
[18] = test system: PC-3; assay: Induction of apoptosis in human PC-3 cells assessed as early apoptotic cells at 4 uM incubated for 24 hrs by annexin V/propidium iodide based flow cytometry (reference value: 2.71%); assay type: functional
[19] = test system: PC-3; assay: Induction of apoptosis in human PC-3 cells assessed as late apoptotic cells at 4 uM incubated for 24 hrs by annexin V/propidium iodide based flow cytometry (reference value: 3.89%); assay type: functional
[20] = test system: PC-3; assay: Induction of apoptosis in human PC-3 cells assessed as necrotic cells at 6 uM incubated for 24 hrs by annexin V/propidium iodide based flow cytometry (reference value: 1.93%); assay type: functional
[21] = test system: PC-3; assay: Induction of apoptosis in human PC-3 cells assessed as early apoptotic cells at 2 uM incubated for 24 hrs by annexin V/propidium iodide based flow cytometry (reference value: 2.71%); assay type: functional

With `CC1(C)Oc2cc(O)cc(CCc3ccccc3)c2C2=C1O[C@@H]1c3c(CCc4ccccc4)cc(O)cc3OC(C)(C)[C@H]21` the IC50 [1] was 3.2 µM, the IC50 [2] was 3.6 µM and the IC50 [3] was 4.5 µM. It also gave an IC50 [4] of 6.2 µM.

With `CC1(C)Oc2cc(O)cc(CCc3ccccc3)c2C2=C1O[C@H]1c3c(CCc4ccccc4)cc(O)cc3OC(C)(C)[C@@H]21` the IC50 [1] was greater than 10 µM, the IC50 [2] was greater than 10 µM and the IC50 [3] was greater than 10 µM. For the same compound, the IC50 [4] was greater than 10 µM.

With `CC1(C)C=Cc2c(CCc3ccccc3)cc(O)c(C3CC(C)(C)Oc4cc(O)cc(CCc5ccccc5)c43)c2O1` (racemic) the IC50 [1] was 8.2 µM, the IC50 [2] was 6.5 µM and the IC50 [3] was 5.7 µM. It also gave an IC50 [4] of 8.2 µM.

Compound `CC12CC(c3c(CCc4ccccc4)cc(O)cc3O1)C1C(C2)c2c(CCc3ccccc3)cc(O)cc2OC1(C)C` (racemic) has an IC50 [1] of 5.4 µM, an IC50 [2] of 5.8 µM and an IC50 [3] of 4.6 µM. For the same compound, the IC50 [4] was 7.2 µM.

Work on `CC1(C)Oc2cc(O)cc(CCc3ccccc3)c2C(C2=Cc3c(CCc4ccccc4)cc(O)cc3OC2(C)C)C1=O` (racemic) yielded an IC50 [1] of 4.1 µM, an IC50 [2] of 4.5 µM and an IC50 [3] of 4.9 µM. It also gave an IC50 [4] of 6.4 µM.

`CC1(C)Oc2cc(O)cc(CCc3ccccc3)c2C2=C1OC1c3c(CCc4ccccc4)cc(O)cc3OC(C)(C)C21` (racemic) was tested, and the Activity [5] was “Active”, the Activity [6] was “Active” and the Activity [7] was 1.82%. The IC50 [1] was 3.4 µM, the Activity [8] was “Active” and the Activity [9] was “Active”. For the same compound, the Activity [10] was 4.12%, the IC50 [2] was 3.7 µM and the Activity [11] was 60.74%. For the same compound, the Activity [12] was “Active”, the Activity [13] was 5.68% and the Activity [14] was “Active”. For the same compound, the IC50 [3] was 5 µM, the Activity [15] was “Active” and the Activity [16] was “Active”. It also gave an Activity [17] of 2.55%, an IC50 [4] of 6.6 µM and an Activity [18] of 1.4%. For the same compound, the Activity [19] was 7.81%, the Activity [20] was 18.81% and the Activity [21] was 2.65%.

With `CC(C)=CCc1c(O)cc2c(c1CCc1ccccc1)C1(C(=O)O2)c2c(CCc3ccccc3)cc(O)cc2OC1(C)C` (racemic) the IC50 [1] was 1.5 µM, the IC50 [2] was 2.8 µM and the IC50 [3] was 3.6 µM. The IC50 [4] was 6.9 µM.

`CC1(C)C=Cc2c(cc3c(c2CCc2ccccc2)C2(C(=O)O3)c3c(CCc4ccccc4)cc(O)cc3OC2(C)C)O1` (racemic) showed an IC50 [1] of 1.4 µM, an IC50 [2] of 2.6 µM and an IC50 [3] of 5.4 µM. The IC50 [4] was 5.8 µM.

`CC1(C)Oc2cc(O)cc(CCc3ccccc3)c2C2OC3c4c(CCc5ccccc5)cc(O)cc4OC(C)(C)C3C21` (racemic) gave an IC50 [1] of 3.5 µM, an IC50 [2] of 3.1 µM and an IC50 [3] of 5.8 µM. The IC50 [4] was 6.7 µM.

Work on `CC1=CC2c3c(CCc4ccccc4)cc(O)cc3OC(c3c(O)cc(O)cc3CCc3ccccc3)C2C(C)(C)C1` (racemic) yielded an IC50 [1] of 8.2 µM and an IC50 [3] of 9.8 µM.

In the case of `COc1cccc2c1C(=O)c1c(O)c3c(c(O)c1C2=O)C[C@@](O)(C(=O)CO)C[C@@H]3O[C@H]1C[C@H](N)[C@H](O)[C@H](C)O1` [DOXORUBICIN HYDROCHLORIDE], the IC50 [1] is reported as 0.4 µM, the IC50 [2] is reported as 1.2 µM and the IC50 [4] is reported as 4.7 µM.

From ChEMBL document CHEMBL4834432, “Diverse Prenylated Bibenzyl Enantiomers from the Chinese Liverwort Radula apiculata and Their Cytotoxic Activities” (J Nat Prod, 2021)
